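All cell lines were grown in 96-well plates and treated with compound for 48 hours. At the GI50, growth is halved. TGI: total growth inhibition.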
Columns and labels:
Assay in all cases: NCI tumour cell line growth inhibition, 48 h
HT29 colon = system: HT29 colon
COLO 205 colon = system: COLO 205 colon
DU-145 prostate = system: DU-145 prostate
SN12C renal = system: SN12C renal
OVCAR-5 ovarian = system: OVCAR-5 ovarian
EKVX NSCLC = system: EKVX NSCLC
OVCAR-8 ovarian = system: OVCAR-8 ovarian
SNB-75 CNS = system: SNB-75 CNS
MCF7 breast = system: MCF7 breast
MDA-MB-231 breast = system: MDA-MB-231 breast
HOP-62 NSCLC = system: HOP-62 NSCLC
NCI-H522 lung = system: NCI-H522 lung
A498 renal = system: A498 renal
SF-268 CNS = system: SF-268 CNS
HCT-116 colon = system: HCT-116 colon
SK-OV-3 ovarian = system: SK-OV-3 ovarian
NCI/ADR-RES ovarian = system: NCI/ADR-RES ovarian
CCRF-CEM leukemia = system: CCRF-CEM leukemia
U251 CNS = system: U251 CNS
NCI-H23 lung = system: NCI-H23 lung
SF-539 CNS = system: SF-539 CNS
HCT-15 colon = system: HCT-15 colon
IGROV1 ovarian = system: IGROV1 ovarian
KM12 colon = system: KM12 colon
RXF 393 renal = system: RXF 393 renal
RPMI-8226 leukemia = system: RPMI-8226 leukemia
SF-295 CNS = system: SF-295 CNS
OVCAR-4 ovarian = system: OVCAR-4 ovarian
SW-620 colon = system: SW-620 colon
M14 melanoma = system: M14 melanoma
BT-549 breast = system: BT-549 breast
NCI-H460 lung = system: NCI-H460 lung
PC-3 prostate = system: PC-3 prostate
SR leukemia = system: SR leukemia
UO-31 renal = system: UO-31 renal
SNB-19 CNS = system: SNB-19 CNS
SK-MEL-2 melanoma = system: SK-MEL-2 melanoma
HCC-2998 colon = system: HCC-2998 colon
A549 NSCLC = system: A549 NSCLC
ACHN renal = system: ACHN renal
SK-MEL-28 melanoma = system: SK-MEL-28 melanoma
MOLT-4 leukemia = system: MOLT-4 leukemia
LOX IMVI melanoma = system: LOX IMVI melanoma
SK-MEL-5 melanoma = system: SK-MEL-5 melanoma
TK-10 renal = system: TK-10 renal
NCI-H226 lung = system: NCI-H226 lung
786-0 renal = system: 786-0 renal
K-562 leukemia = system: K-562 leukemia
UACC-62 melanoma = system: UACC-62 melanoma
HS 578T breast = system: HS 578T breast
UACC-257 melanoma = system: UACC-257 melanoma
MALME-3M melanoma = system: MALME-3M melanoma

## CN(C)/C=C/c1nnnn1-c1ccc(Cl)cc1
HT29 colon
  GI50: 20.2 µM
  TGI: 45 µM
COLO 205 colon
  GI50: 28.2 µM
  TGI: 58.7 µM
DU-145 prostate
  GI50: 14.2 µM
  TGI: 64.3 µM
SN12C renal
  GI50: 4.69 µM
  TGI: 28.8 µM
OVCAR-5 ovarian
  GI50: 24.7 µM
  TGI: 55.4 µM
EKVX NSCLC
  GI50: 30.9 µM
  TGI: 82.8 µM
OVCAR-8 ovarian
  GI50: 11.2 µM
  TGI: 64.4 µM
SNB-75 CNS
  GI50: 25.1 µM
  TGI: > 100 µM
MCF7 breast
  GI50: 6.03 µM
  TGI: 24.8 µM
MDA-MB-231 breast
  GI50: 16.1 µM
  TGI: > 100 µM
HOP-62 NSCLC
  GI50: 11.4 µM
  TGI: 46.9 µM
NCI-H522 lung
  GI50: 25.2 µM
  TGI: 64.8 µM
A498 renal
  GI50: 30.5 µM
  TGI: 87.1 µM
SF-268 CNS
  GI50: 3.01 µM
  TGI: 19.8 µM
HCT-116 colon
  GI50: 4.4 µM
  TGI: 37.3 µM
SK-OV-3 ovarian
  GI50: 24.1 µM
  TGI: 81.6 µM
NCI/ADR-RES ovarian
  GI50: 10.2 µM
  TGI: 36.3 µM
CCRF-CEM leukemia
  GI50: 4.65 µM
  TGI: 42.4 µM
U251 CNS
  GI50: 6.5 µM
  TGI: > 100 µM
NCI-H23 lung
  GI50: 11.8 µM
  TGI: 29.8 µM
SF-539 CNS
  GI50: 16.5 µM
  TGI: 44.4 µM
HCT-15 colon
  GI50: 5.04 µM
  TGI: 80 µM
IGROV1 ovarian
  GI50: 14 µM
  TGI: > 100 µM
KM12 colon
  GI50: 22 µM
  TGI: 64.8 µM
RXF 393 renal
  GI50: 7.55 µM
  TGI: 26.8 µM
RPMI-8226 leukemia
  GI50: 3.38 µM
  TGI: 18.5 µM
SF-295 CNS
  GI50: 19 µM
  TGI: 36.7 µM
OVCAR-4 ovarian
  GI50: 28.2 µM
  TGI: 80.4 µM
SW-620 colon
  GI50: 10.7 µM
  TGI: 49.8 µM
M14 melanoma
  GI50: 5.21 µM
  TGI: 44.1 µM
BT-549 breast
  GI50: 8.56 µM
  TGI: 38.7 µM
NCI-H460 lung
  GI50: 16.9 µM
  TGI: 37.3 µM
PC-3 prostate
  GI50: 6.76 µM
  TGI: 35.5 µM
SR leukemia
  GI50: 3.35 µM
  TGI: 29.6 µM
UO-31 renal
  GI50: 23.5 µM
  TGI: 84.8 µM
SNB-19 CNS
  GI50: 29 µM
  TGI: 92.9 µM
SK-MEL-2 melanoma
  GI50: 13.2 µM
  TGI: > 100 µM
HCC-2998 colon
  GI50: 18.3 µM
  TGI: 34.5 µM
A549 NSCLC
  GI50: 30.5 µM
  TGI: > 100 µM
ACHN renal
  GI50: 24.7 µM
  TGI: > 100 µM
SK-MEL-28 melanoma
  GI50: 30.2 µM
  TGI: > 100 µM
MOLT-4 leukemia
  GI50: 3.51 µM
  TGI: > 100 µM
LOX IMVI melanoma
  GI50: 21.7 µM
  TGI: > 100 µM
SK-MEL-5 melanoma
  GI50: 15 µM
  TGI: 35.4 µM
TK-10 renal
  GI50: 25.4 µM
  TGI: 80.4 µM
NCI-H226 lung
  GI50: 15.6 µM
  TGI: 44.3 µM
786-0 renal
  GI50: 14.8 µM
  TGI: 56.3 µM
K-562 leukemia
  GI50: 19.6 µM
  TGI: > 100 µM
UACC-62 melanoma
  GI50: 8.22 µM
  TGI: 31.4 µM
HS 578T breast
  GI50: 17.5 µM
  TGI: 79.7 µM
UACC-257 melanoma
  GI50: 35.6 µM
  TGI: > 100 µM
MALME-3M melanoma
  GI50: 12.8 µM
  TGI: 38.7 µM
